Source: patent publication EP2737897A2, “Anti-inflammatory botanical products for the treatment of metabolic syndrome and diabetes” (Metaproteomics, LLC, priority 2005, dated 2007)
Values after ≈ are worked out from the molar mass of the structure shown. Like-named read-outs stand apart in the source and are kept apart here. Marks after values point to notes of the source that are not given here.

Key:
[1] = test system: adiponectin secretion in LPS/3T3-L1 adipocytes; assay: Adiponectin secretion in the lipopolysaccharide/3T3-L1 adipocyte model (Example 26); conditions: 100 ng LPS/ml; for % Stimulation (maximum, adiponectin secretion): NS = not significantly different from the LPS control
3T3-L1 adipocytes = assay: Lipogenesis in 3T3-L1 adipocytes, Oil Red O or BODIPY staining; format: cell-based, murine
[2] = test system: IL-6 secretion in LPS/3T3-L1 adipocytes; assay: IL-6 secretion in the lipopolysaccharide/3T3-L1 adipocyte model (Example 26); format: cell-based, murine; conditions: 100 ng LPS/ml
PGE2 synthesis = assay: cells; format: cell-based, murine; conditions: for IC50: Mus musculus
[3] = test system: interleukin-6 secretion from TNFα-treated 3T3-L1 adipocytes; assay: Interleukin-6 secretion from TNFα-treated 3T3-L1 adipocytes; format: cell-based, murine; conditions: Mus musculus, 3T3-L1, read-out: IL-6 Index
NF-κB = NF-κB DNA binding of nuclear extracts of LPS-stimulated RAW 264.7 cells, TransAM NF-κB kit (Example 9); format: cell-based, murine; conditions: MgRIAA 55 and 14 µg/ml, parthenolide 80 µM, LY294002 25 µM; LPS 1 µg/ml 4 h
COX-2 protein expression = assay: Western blot of COX-2 protein expression in LPS-stimulated RAW 264.7 cells (Example 8); format: cell-based, murine; conditions: 20 hours stimulation with LPS; compared to DMSO solvent control
NF-kBp65 = NF-kBp65 nuclear translocation in TNFα-treated D40 3T3-L1 adipocytes, TransAM ELISA (Example 32); format: cell-based, murine; conditions: 2.5 and 5.0 µg/ml; three or 24 hours following TNFα
Protocol: ELISA - 3T3-L1 adipocytes were maintained in growth media for 40 days following differentiation. Nuclear NF-kBp65 was determined using the TransAM™ NF-kB kit from Active Motif (Carlsbad, CA) was used with no modifications. […] Protein assay - Nuclear protein was quantified using the Active Motif Fluorescent Protein Quantificantion Kit. Statistical Analysis - Comparisons were performed using a one-tailed Student's t-test. The probability of a type I error was set at the nominal five percent level.

[4] = test system: IL-6 secretion from insulin-resistant 3T3-L1 adipocytes; assay: IL-6 secretion from insulin-resistant 3T3-L1 adipocytes; format: cell-based, murine; conditions: Mus musculus
[5] = test system: adiponectin secretion from TNFα-treated 3T3-L1 adipocytes; assay: Adiponectin secretion from TNFα-treated 3T3-L1 adipocytes; conditions: 10 ng TNFα/ml (Table 9)
[6] = test system: adiponectin secretion from insulin-resistant 3T3-L1 adipocytes
[7] = test system: adiponectin secretion from insulin-resistant 3T3-L1 adipocytes; assay: cells; conditions: Mus musculus
[8] = test system: resistin secretion from insulin-resistant 3T3-L1 adipocytes; assay: cells; conditions: Mus musculus, 3T3-L1, read-out: Resistin Index
Protocol: Resistin Assay - The amount of resistin secreted into the medium was quantified using the Quantikine® Mouse Resistin Immunoassay kit with no modifications (R&D Systems, Minneapolis, MN). […] All supernatant media samples were diluted 1:20 with dilution media supplied by the manufacturer before assay.
Statistical Calculations and Interpretation - All assays were preformed in duplicate. […] Differences among the doses were determined using the Student's t-test without correction for multiple comparisons; the nominal five percent probability of a type I error (one-tail) was selected.

[9] = RAW264.7, read-out: Relative IC50
[10] = 3T3-L1, read-out: Adiponectin Index

Which “% Stimulation (maximum, adiponectin secretion)” value (“% Stimulation” below) [1] does the source give for COc1ccc2c(c1)c(CC(=O)O)c(C)n2C(=O)c1ccc(Cl)cc1 [Indomethacin] here?
Its value is 9%.

What about the activation at 5 µg/mL (3T3-L1 adipocytes; Mus musculus, 3T3-L1, read-out: increase of nonpolar lipid incorporation relative to the solvent controls) of the same compound?
The activation at 5 µg/mL was 33%.

And the “% Inhibition (maximum, IL-6 secretion)” value [2]?
Its value is 53* %.

For O=c1c(O)c(-c2ccc(O)c(O)c2)oc2cc(O)cc(O)c12 [Quercetin], which “Relative Potency” value (PGE2 synthesis) is on record?
Its value is “high”.

What does the source list for CN(C)C(=N)N=C(N)N [Metformin]?
activity at 50 µg/mL (3T3-L1 adipocytes; Mus musculus, 3T3-L1, read-out: lipogenic index (observed)): 79%; activity at 1 µg/mL [3]: 91%; activity at 5 µg/mL [3]: 96%; activity at 10 µg/mL [3]: 78%; activity at 50 µg/mL [3]: 78%

What does the source list for CC(C)Cc1ccc(C(C)C(=O)O)cc1 (stereo not drawn) [Ibuprofen]?
Concentration (of maximum stimulation of adiponectin secretion) [1]: 0.625 µg/mL; % Stimulation (maximum, adiponectin secretion) [1]: 22%; % Inhibition (maximum, IL-6 secretion) [2]: 54* %; Concentration (dose providing the maximum inhibition of IL-6 secretion) [2]: 0.625 µg/mL

Which results are given for C=C1C(=O)O[C@@H]2[C@H]3O[C@]3(C)CC/C=C(\C)CC[C@@H]12 [Parthenolide]?
NF-κB DNA binding (NF-κB): significant reduction; reduction in COX-2 protein expression (COX-2 protein expression): 22.5%

How did the “Concentration (of maximum stimulation of adiponectin secretion)” value [1] turn out when O=C(O)c1ccccc1O [Salicylic acid] was run?
The value was 173 µg/mL.

And the “% Stimulation” value [1]?
Its value is “failed to induce adiponectin secretion”.

What about the “Concentration (dose providing the maximum inhibition of IL-6 secretion)” value [2] of the same compound?
The value was 50.0 µg/mL.

And the “IL-6 Index (maximum inhibition)” value ([2]; [IL-6Test - IL-6Control]/[IL-6LPS - IL-6Control])?
The value was 0.52*.

O=c1c(-c2ccc(O)cc2)coc2cc(O)cc(O)c12 [Genistein] was tested. Which “Relative Potency” value (PGE2 synthesis) did it give?
Its value is “high”.

With COc1ccc2cc3[n+](cc2c1OC)CCc1cc2c(cc1-3)OCO2 [Berberine] as the compound, how does the IC50 (PGE2 synthesis; RAW264.7) read?
The IC50 was 3.3 µg/mL.

What about the IC50 (PGE2 synthesis; [9]) of the same compound?
Its IC50 is 2 to 6 µg/mL.

How did the “% Stimulation” value [1] turn out when CCc1ccc(CCOc2ccc(CC3SC(=O)NC3=O)cc2)nc1 (stereo not drawn) [Pioglitazone] was run?
The value was 12%.

What about the “% Inhibition (maximum, IL-6 secretion)” value [2] of the same compound?
The value was 63* %.

And the “amount of nuclear NF-kBp65” value (NF-kBp65)?
The value was “did not inhibit”.

Which results are given for CC(=O)Oc1ccccc1C(=O)O [Aspirin]?
Concentration (of maximum stimulation of adiponectin secretion) [1]: 113 µg/mL; % Stimulation (maximum, adiponectin secretion) [1]: failed to induce adiponectin secretion; Concentration (dose providing the maximum inhibition of IL-6 secretion) [2]: 25.0 µg/mL

With Cc1c(C)c2c(c(C)c1O)CCC(C)(COc1ccc(CC3SC(=O)NC3=O)cc1)O2 (stereo not drawn) [Troglitazone] as the compound, how does the activity at 0.625 µg/mL ([4]; 3T3-L1, read-out: IL-6 Index) read?
Its activity at 0.625 µg/mL is 100%.

And the activity at 5 µg/mL ([4]; 3T3-L1, read-out: IL-6 Index)?
The activity at 5 µg/mL was 131%.

And the “Concentration (of maximum adiponectin secretion)” value [5]?
Its value is 0.625 µg/mL.

What about the “concentration at which maximal adiponectin secretion was observed” value ([6]; of the four doses tested) of the same compound?
Its value is 2.5 µg/mL.

And the “Concentration (of maximum stimulation of adiponectin secretion)” value [1]?
The value was 0.625 µg/mL.

And the “% Stimulation” value [1]?
The value was 15%.

And the EC50 ([7]; 3T3-L1, read-out: Test Material at Half Maximal Secretion, estimated from the slope of Hofstee plots)?
Its EC50 is 0.085 µg/mL (≈ 0.193 µM).

What about the “% Inhibition (maximum, IL-6 secretion)” value [2] of the same compound?
Its value is 69* %.

What about the “Concentration (dose providing the maximum inhibition of IL-6 secretion)” value [2] of the same compound?
Its value is 10.0 µg/mL.

And the activity at 1 µg/mL [3]?
Its activity at 1 µg/mL is 66%.

What about the activity at 0.625 µg/mL [8] of the same compound?
The activity at 0.625 µg/mL was 89%.

And the activity at 5 µg/mL [8]?
Its activity at 5 µg/mL is 143%.

Which “Relative Potency” value (PGE2 synthesis) does the source give for O=c1c(O)c(-c2ccccc2)oc2cc(O)cc(O)c12 [Galangin] here?
The value was “high”.

How did the IC50 (PGE2 synthesis; RAW264.7) turn out when C[C@@H]1O[C@@H](OC[C@H]2O[C@@H](Oc3c(-c4ccc(O)c(O)c4)oc4cc(O)cc(O)c4c3=O)[C@H](O)[C@@H](O)[C@@H]2O)[C@H](O)[C@H](O)[C@H]1O [Rutin] was run?
Its IC50 is greater than 12 µg/mL.

And the IC50 (PGE2 synthesis; [9])?
Its IC50 is greater than 12 µg/mL.

Which IC50 (PGE2 synthesis; RAW264.7) does the source give for Oc1cc(O)c2c(c1)OC(c1ccc(O)c(O)c1)C(O)C2 (stereo not drawn) [Catechin] here?
Its IC50 is greater than 12 µg/mL.

And the IC50 (PGE2 synthesis; [9])?
The IC50 was greater than 12 µg/mL.

Which results are given for Oc1ccc(C=Cc2cc(O)cc(O)c2)cc1 [Resveratrol]?
IC50 (PGE2 synthesis; RAW264.7): 5.8 µg/mL (≈ 25.4 µM); IC50 (PGE2 synthesis; [9]): 2 to 6 µg/mL (≈ 8.76 to 26.3 µM)

O=c1c(O)c(-c2cc(O)c(O)c(O)c2)oc2cc(O)cc(O)c12 [Myricetin] was tested. Which IC50 (PGE2 synthesis; RAW264.7) did it give?
Its IC50 is greater than 12 µg/mL.

And the IC50 (PGE2 synthesis; [9])?
Its IC50 is greater than 12 µg/mL.

O=c1c(O)c(-c2ccc(O)cc2)oc2cc(O)cc(O)c12 [Keampferol] was tested. Which IC50 (PGE2 synthesis; RAW264.7) did it give?
Its IC50 is 4.3 µg/mL (≈ 15 µM).

And the IC50 (PGE2 synthesis; [9])?
The IC50 was 2 to 6 µg/mL (≈ 6.99 to 21 µM).

c1cc2c(cc1[C@H]1OC[C@H]3[C@@H]1CO[C@@H]3c1ccc3c(c1)OCO3)OCO2 [Sesamin] was tested. Which IC50 (PGE2 synthesis; RAW264.7) did it give?
Its IC50 is greater than 12 µg/mL.

What about the IC50 (PGE2 synthesis; [9]) of the same compound?
Its IC50 is greater than 12 µg/mL.

CC(C)CCC1=C(O)C(CCC(C)C)(CCC(C)C)C(=O)C(C(=O)C(C)C)=C1O [Hexahydrocolupulone (HHCL), Hexahydrocolupulone] was tested. Which activity at 6.25 µg/mL ([4]; 3T3-L1, 6.25 µg/ml, indexed to insulin only control, read-out: IL-6 Index) did it give?
The activity at 6.25 µg/mL was 100%.

What about the activity at 25 µg/mL ([4]; 3T3-L1, 25.0 µg/ml, indexed to insulin only control, read-out: IL-6 Index) of the same compound?
The activity at 25 µg/mL was 119%.

And the activity at 50 µg/mL ([4]; 3T3-L1, 50.0 µg/ml, indexed to insulin only control, read-out: IL-6 Index)?
Its activity at 50 µg/mL is 277%.

And the “Adiponectin Index” value ([6]; 3t3-l1 adipocytes)?
Its value is 1.71#.

What about the “adipogenic response (lipid content relative to solvent control)” value (3T3-L1 adipocytes; hops compounds 10, 5, 4 or 2 µg/ml, spent hops 50 µg/ml, positive controls indomethacin 5.0 and troglitazone […]) of the same compound?
The value was “failed to elicit a lipogenic response greater than the solvent controls”.

What about the fold induction at 6.25 µg/mL [7, 10] of the same compound?
The fold induction at 6.25 µg/mL was 1.05.

What about the fold induction at 25 µg/mL [7, 10] of the same compound?
The fold induction at 25 µg/mL was 1.62.

What about the fold induction at 50 µg/mL [7, 10] of the same compound?
The fold induction at 50 µg/mL was 1.65.

And the maximal fold induction ([7]; 3T3-L1, read-out: Maximum Adiponectin Secretion)?
Its maximal fold induction is 1.83.

And the EC50 ([7]; 3T3-L1, read-out: Test Material at Half Maximal Secretion)?
Its EC50 is 3.2 µg/mL.
